From ChEMBL document CHEMBL1201862, “PubChem BioAssay data set” (2004) come the findings set out here.

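Cells were grown in 96-well plates and exposed to each compound for 48 hours at five concentrations; endpoints were interpolated linearly between bracketing concentrations, or set to the highest concentration if not reached. GI50 is the concentration that inhibits growth by half.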 Active and inactive are the calls of the source. No stated cut-off is given here; in the data, active = GI50 up to about 1.1 µM and inactive = higher. Where only a bound is given, the exact number is not on record here.

Some test systems named below: M14; MOLT-4; OVCAR-8; M19-MEL; UACC-257; CCRF-CEM; ACHN; HCT-15; NCI-H23; SK-MEL-5; HT-29; IGROV-1; OVCAR-5; SW-620; COLO 205; HOP-92; HL-60; NCI/ADR-RES; DU-145; CAKI-1.
Common to all, as to test: NCI tumour cell line growth inhibition, 48 h

In the case of `Cc1ccc(C2=C(c3ccccc3)C(=O)C(c3ccccc3)=C2c2ccc(C)cc2)cc1`, the GI50 in the assay with M14 is > 100 µM (inactive); with MOLT-4, 14.5 µM (inactive); in the assay with OVCAR-8 it was 73.6 µM (inactive); in the assay with M19-MEL, 41.1 µM (inactive); in the assay with UACC-257, 39.4 µM (inactive); with CCRF-CEM it was 17.2 µM (inactive). Further, the GI50 was 32.3 µM (inactive) in the assay on ACHN; 32.4 µM in the assay with HCT-15; 31.1 µM (inactive) in the assay on NCI-H23; 55.1 µM (inactive) with SK-MEL-5; 33.5 µM (inactive) in the assay with HT-29; > 100 µM (inactive) with IGROV-1. The GI50 in the assay on OVCAR-5 is > 100 µM (inactive); in the assay on SW-620, 37.9 µM (inactive).
With `O=C(CCCN1CCC2(CC1)C(=O)NC(=O)N2c1ccccc1)c1ccc(F)cc1`, the GI50 in the assay with M14, in the assay with COLO 205, in the assay with HOP-92, in the assay on HL-60, in the assay on MOLT-4 and with OVCAR-8 was > 100 µM (inactive) throughout. The GI50 in the assay with UACC-257, in the assay on NCI/ADR-RES, in the assay with DU-145, with CAKI-1, in the assay on CCRF-CEM and with ACHN was > 100 µM (inactive) throughout. The GI50 with HCT-15 was above 100 µM; in the assay on NCI-H23 it was > 100 µM (inactive); with SK-MEL-5, > 100 µM (inactive); in the assay with HT-29, 66.2 µM (inactive); in the assay with IGROV-1, > 100 µM (inactive); in the assay on OVCAR-5, > 100 µM (inactive). The GI50 with SW-620 was > 100 µM (inactive).
With `CN1CCN(c2n[nH]c(=O)c3c2nnn3C2CCCCC2)CC1`, the GI50 in the assay on M14, in the assay with COLO 205, in the assay on HOP-92, in the assay with HL-60, in the assay with MOLT-4 and with OVCAR-8 was > 100 µM (inactive) each time. In addition, the GI50 with UACC-257, with NCI/ADR-RES, with DU-145, in the assay with CAKI-1, in the assay on CCRF-CEM and in the assay with ACHN was > 100 µM (inactive) each time. Moreover, the GI50 in the assay with HCT-15 was above 100 µM; in the assay on NCI-H23, > 100 µM (inactive); with SK-MEL-5, > 100 µM (inactive); in the assay on HT-29 it was > 100 µM (inactive); with IGROV-1, > 100 µM (inactive); in the assay with OVCAR-5, > 100 µM (inactive). The GI50 in the assay on SW-620 was > 100 µM (inactive).
As to `NC(=O)CC(N)c1nnn[nH]1` (configuration not stated), the GI50 in the assay with M14, with COLO 205, in the assay with HOP-92, with HL-60, in the assay on MOLT-4 and in the assay with OVCAR-8 was > 100 µM (inactive) each time. The GI50 in the assay with UACC-257, in the assay with NCI/ADR-RES, with DU-145, in the assay on CAKI-1, in the assay with CCRF-CEM and with ACHN was > 100 µM (inactive) throughout. For the same compound, the GI50 was above 100 µM in the assay on HCT-15; > 100 µM (inactive) with NCI-H23; > 100 µM (inactive) in the assay with SK-MEL-5; > 100 µM (inactive) in the assay with HT-29; > 100 µM (inactive) in the assay with IGROV-1; > 100 µM (inactive) with OVCAR-5. The GI50 in the assay on SW-620 was > 100 µM (inactive).
Regarding `CN(CCNC(=O)c1cc(-c2ccccc2)nc2ccccc12)CCNC(=O)c1cc(-c2ccccc2)nc2ccccc12`, the GI50 in the assay on M14 was 2.17 µM (inactive); with COLO 205, 2.22 µM (inactive); in the assay on HOP-92, 2.61 µM (inactive); in the assay on HL-60 it was 4.7 µM (inactive); with MOLT-4, 4.17 µM (inactive); with OVCAR-8 it was > 28.1 µM (inactive). Also, the GI50 in the assay on UACC-257 is 3.05 µM (inactive); with NCI/ADR-RES it was > 100 µM (inactive); in the assay on DU-145 it was 12.5 µM (inactive); with CAKI-1 it was > 100 µM (inactive); in the assay with CCRF-CEM, 4.69 µM (inactive); in the assay with ACHN it was > 47 µM (inactive). Also, the GI50 is above 80.5 µM with HCT-15; > 45.4 µM (inactive) in the assay on NCI-H23; 2.31 µM (inactive) with SK-MEL-5; 2.14 µM (inactive) in the assay on HT-29; 3.6 µM (inactive) in the assay on IGROV-1; 8.55 µM (inactive) with OVCAR-5. In addition, the GI50 in the assay with SW-620 is 6.12 µM (inactive).
Take `NC1CC(=O)c2csc(Cl)c21` (configuration not stated): the GI50 in the assay with M14 was 8.99 µM (inactive); with COLO 205, 5.32 µM (inactive); in the assay with HOP-92 it was 4.46 µM (inactive); in the assay with HL-60 it was 2.72 µM (inactive); in the assay on MOLT-4 it was 1.48 µM (inactive); in the assay on OVCAR-8 it was 6.61 µM (inactive). For the same compound, the GI50 is 14.9 µM (inactive) in the assay with UACC-257; 27 µM (inactive) in the assay on NCI/ADR-RES; 8.11 µM (inactive) in the assay on DU-145; 1.86 µM (inactive) with CAKI-1; 0.778 µM (active) in the assay with CCRF-CEM; 5.33 µM (inactive) in the assay with ACHN. The GI50 is 5.41 µM in the assay on HCT-15; 20.7 µM (inactive) with NCI-H23; 18.5 µM (inactive) in the assay with SK-MEL-5; 10.3 µM (inactive) with HT-29; 15.7 µM (inactive) in the assay with IGROV-1; 19.6 µM (inactive) in the assay with OVCAR-5. The GI50 with SW-620 is 2.05 µM (inactive).
With `O=C1Nc2ccccc2/C1=C\c1c(-c2ccccc2)nc2n1CCS2`, the GI50 in the assay on M14 is 30.3 µM (inactive); in the assay on COLO 205, 29 µM (inactive); in the assay on HOP-92 it was 39.3 µM (inactive); in the assay on HL-60, 18.2 µM (inactive); in the assay with MOLT-4, 25.8 µM (inactive); with OVCAR-8 it was 31.3 µM (inactive). Besides, the GI50 with UACC-257 was 19.5 µM (inactive); in the assay with NCI/ADR-RES, 23.1 µM (inactive); with DU-145, 13.6 µM (inactive); with CAKI-1 it was 21.3 µM (inactive); with CCRF-CEM it was 24.7 µM (inactive); in the assay with ACHN, 23.6 µM (inactive). For the same compound, the GI50 was 18.6 µM with HCT-15; 22.9 µM (inactive) in the assay with NCI-H23; 16.5 µM (inactive) in the assay on SK-MEL-5; 19.5 µM (inactive) with HT-29; 23 µM (inactive) with IGROV-1; 17.5 µM (inactive) in the assay on OVCAR-5. Further, in the assay on SW-620, the GI50 was 29.3 µM (inactive).
On to `CN(C)c1ccc(/C=c2\c3ccccc3n3c2cc(-c2ccccc2)[n+]3C)cc1`, for which the GI50 is 0.157 µM (active) with M14; 0.0143 µM (active) with COLO 205; 0.284 µM (active) in the assay on HOP-92; 0.0283 µM (active) in the assay on HL-60; 0.0914 µM (active) in the assay with MOLT-4; 0.0726 µM (active) in the assay on OVCAR-8. The GI50 in the assay on UACC-257 was 0.243 µM (active); with NCI/ADR-RES, 4.45 µM (inactive); in the assay with DU-145 it was 0.222 µM (active); in the assay with CAKI-1 it was 0.716 µM (active); in the assay with CCRF-CEM, 0.0635 µM (active); in the assay on ACHN it was 0.368 µM (active). For the same compound, the GI50 in the assay with HCT-15 was 1.2 µM; in the assay with NCI-H23 it was 0.0582 µM (active); in the assay on SK-MEL-5 it was 0.0728 µM (active); in the assay on HT-29 it was 0.0891 µM (active); with IGROV-1, 0.0689 µM (active); in the assay on OVCAR-5 it was 0.67 µM (active). In addition, the GI50 in the assay on SW-620 was 0.119 µM (active).
